# Where “and” joins values, the source holds several entries; their conditions need not be identical. Equal values may be shown once. Read-outs that look alike come from different tables or passages of the source.
# What was measured:
# Assay type in all cases: cell-based
# HepG2 cells [1] = test: Transwell invasion assay (Matrigel); details: HepG2, 24 h treatment, vs control
# Procedure: HepG2 cells were treated with either KJ-5 or KJ-12 for 24 h. Then, the cells were suspended and seeded into the upper chamber of a 24-well Transwell plate (Corning Inc., United States) in serum-free medium. The cells were cultured for 24 h at 37°C; a medium containing 20% FBS as a chemoattractant was added to the lower chamber. HepG2 cells that had invaded through the membrane were fixed with 4% paraformaldehyde for 20 min and stained with 0.1% crystal violet. Five random fields were then imaged and quantified using an inverted fluorescence microscope (Axio Observer3, Germany). To assess invasion, transwell assays were performed in a similar manner, with the exception of coating the upper chamber of the Transwell with 100 μL of diluted Matrigel solution per well.
# HepG2 cells [2] = test: Annexin V-FITC/PI staining for cell apoptosis (flow cytometry); details: 24 h; for Proportion of apoptotic cells: Annexin-V/PI
# Procedure: HepG2 cells were plated in a 6-well plate at a density of 5 × 10^6 cells/well and incubated for 24 h. Then, the original culture medium was replaced with 2 mL DMEM containing KJ-5 or KJ-12 (2, 4, and 8 μM) and incubated for 24 h. After incubation with KJ-5 or KJ-12, the cells were washed with cold PBS and then resuspended in 100 µL binding buffer at a concentration of 1 × 10^6 cells/mL. Then, 5 μl of FITC Annexin V and 5 µl of PI were added to the solution. The cells were gently vortexed and incubated for 15 min at room temperature (25°C) in the dark. Subsequently, 400 µL binding buffer was added to each tube, and the samples were analyzed by flow cytometry (BD Accuri™ C6 Plus) within 1 h.
# MCF-7 cells = test: MTT assay for cell proliferation, MCF-7; set-up: key to Inhibitory rate / Inhibition rate: inhibition rate = 1 - mean A490 sample/mean A490 control (fraction)
# Procedure: (§1) HepG2, HeLa, MCF-7, and KYSE-30 cells were grown in a humidified incubator at 37°C with 5% CO2 in DMEM supplemented with 10% fetal bovine serum (FBS), […] streptomycin, and 100 U/mL penicillin.
# (§2) When HepG2 cells reached 80% confluence, they were treated with 1 mL of trypsin and resuspended at a density of 10^5 cells/mL. Then, 100 μL of cell suspension was seeded into each well of a 96-well plate and incubated in a humidified atmosphere. The different concentrations of KJ-5 and KJ-12 (0, 1, 2, 4, 8, 16, and 32 μM) were added to each well, and the cells were further incubated for 48 h. Afterward, 20 μL of the MTT solution (5 mg/mL) was added to each well, and incubation was continued for another 4 h. The supernatant was discarded, and 200 μL of the DMSO solution was added to each well. The plate was shaken for 10 min in the dark. The absorbance values were measured at 490 nm using an enzyme-linked detector. The cell inhibition rate (%) was calculated using the following formula: (1-Mean A490 sample/Mean A490 control) × 100%.
# HeLa cells = test: MTT assay for cell proliferation, HeLa; set-up: key to Inhibitory rate: inhibition rate = 1 - mean A490 sample/mean A490 control (fraction)
# Procedure: as §1, §2
# p-H2AX in HepG2 cells = test: H2AX phosphorylation by immunofluorescence and Western blotting; details: HepG2, 24 h
# Procedure: HepG2 cells were plated in laser confocal dishes (Nest, China), followed by the addition of KJ-5 or KJ-12 for 24 h. Then, 4% paraformaldehyde was added to each laser confocal dish for 20 min after rinsing with PBS. Before the goat serum was added to block for 1 h, 0.5% Triton X-100 was used to penetrate HepG2 for 30 min. Subsequently, the cells were incubated with p-H2AX (Cell Signaling Technology, MA, United States) at a 1:800 dilution at 4°C overnight. The cells were rinsed with PBS and incubated with Alexa Fluor 488 (Proteintech, Wuhan, China) at a 1:1000 dilution in dark at room temperature for 1 h. DAPI was used to stain the cell nucleus for 5 min. Then, the cells were rinsed with PBS before observing the cells under a laser confocal microscope (Nikon, Tokyo, Japan).
# After being pretreated with either KJ-5 or KJ-12 at concentrations of 2, 4, or 8 μM for 24 h, the cells were harvested and lysed using an ice-cold cell lysis buffer from Beyotime Biotechnology (Shanghai, China). The proteins were mixed with a loading buffer and denatured by heating at 95°C–100°C for 5–10 min. Equal amounts of protein were loaded onto a 10% SDS-PAGE gel along with a molecular weight marker and separated by electrophoresis for 2 h. The separated proteins were transferred onto a PVDF membrane, which was blocked with 5% non-fat milk for non-specific binding sites on the membrane. […]
# [3] = MCF-7, fraction, per experiment
smiles,measurement,setting,value
COc1c2n(cc(C(=O)Nc3cccc(-c4cn(-c5c(C)cc(C)cc5C)nn4)c3)c1=O)C[C@H]1OC[C@H](C)N1C2=O [KJ-12],Invasion of HepG2 cells (transwell with Matrigel),HepG2 cells [1],significantly impaired
same,Proportion of apoptotic cells,"HepG2 cells [2]; HepG2, 2 μM",21.2 ± 1.4%
same,Proportion of apoptotic cells,"HepG2 cells [2]; HepG2, 4 μM",30.5 ± 1.1%
same,Proportion of apoptotic cells,"HepG2 cells [2]; HepG2, 8 μM",44.4 ± 1.9%
same,Cell apoptosis (in words),"HepG2 cells [2]; HepG2, 2, 4, 8 μM",significantly caused cell apoptosis in a concentration-dependent manner
same,IC50,"MCF-7 cells; Homo sapiens, MCF7, 48 h, MCF-7, 48 h, MTT, read-out: IC50 MCF-7",8.55 ± 0.6 µM
same,IC50,"MCF-7 cells; Homo sapiens, MCF7, MCF-7, one of three experiments, unit inferred, read-out: IC50, single experiment, MCF-7",9.23 µM
same,inhibition at 16 µM,"MCF-7 cells; Homo sapiens, MCF7, preliminary screening, MCF-7, 16 μM, 48 h, mean±SD, unit inferred, read-out: Inhibition rate (16μM), 48 h, MCF-7",54.7 ± 1.79%
same,Inhibitory rate,"MCF-7 cells; MCF-7, group 1 (concentration), fraction, single experiments",0.2053 and 0.2025 and 0.1943
same,ODtreated/ODcontrol,"MCF-7 cells; MCF-7, group 1 (concentration), single experiments",0.7947 and 0.7975 and 0.8057
same,Inhibitory rate,"MCF-7 cells; MCF-7, group 2 (concentration), fraction, single experiments",0.2385 and 0.2481 and 0.2879
same,ODtreated/ODcontrol,"MCF-7 cells; MCF-7, group 2 (concentration), single experiments",0.7615 and 0.7519 and 0.7121
same,Inhibitory rate,"MCF-7 cells; MCF-7, group 4 (concentration), fraction, single experiments",0.3137 and 0.3313 and 0.3802
same,ODtreated/ODcontrol,"MCF-7 cells; MCF-7, group 4 (concentration), single experiments",0.6863 and 0.6687 and 0.6198
same,Inhibitory rate,"MCF-7 cells; MCF-7, group 8 (concentration), fraction, single experiments",0.4877 and 0.4713 and 0.472
same,ODtreated/ODcontrol,"MCF-7 cells; MCF-7, group 8 (concentration), single experiments",0.5123 and 0.5287 and 0.528
same,Inhibitory rate,"MCF-7 cells; MCF-7, group 16 (concentration), fraction, single experiments",0.5949 and 0.6244 and 0.5636
same,ODtreated/ODcontrol,"MCF-7 cells; MCF-7, group 16 (concentration), single experiments",0.4051 and 0.3756 and 0.4364
same,Inhibitory rate,"MCF-7 cells; MCF-7, group 32 (concentration), fraction, single experiments",0.7215 and 0.7706 and 0.7971
same,ODtreated/ODcontrol,"MCF-7 cells; MCF-7, group 32 (concentration), single experiments",0.2785 and 0.2294 and 0.2029
same,IC50,"MCF-7 cells; MCF-7, one of three experiments, unit inferred, read-out: IC50, single experiment, MCF-7",8.35 µM and 8.08 µM
same,Inhibitory rate,MCF-7 cells; [3],0.5407
same,ODtreated/ODcontrol,MCF-7 cells; [3],0.4593
same,Inhibitory rate,"MCF-7 cells; given as fraction, second of three experiments",0.5326
same,Inhibition rate,"MCF-7 cells; given as fraction, third of three experiments",0.5669
same,ODtreated/ODcontrol,MCF-7 cells; second of three experiments,0.4674
same,ODtreated/ODcontrol,MCF-7 cells; third of three experiments,0.4331
same,Inhibitory rate,"HeLa cells; Hela, group 1 (concentration), fraction, single experiments",0.2971 and 0.2883 and 0.2551
same,ODtreated/ODcontrol,"HeLa cells; Hela, group 1 (concentration), single experiments",0.7029 and 0.7117 and 0.7449
same,Inhibitory rate,"HeLa cells; Hela, group 2 (concentration), fraction, single experiments",0.3155 and 0.3221 and 0.3198
same,ODtreated/ODcontrol,"HeLa cells; Hela, group 2 (concentration), single experiments",0.6845 and 0.6779 and 0.6802
same,Inhibitory rate,"HeLa cells; Hela, group 4 (concentration), fraction, single experiments",0.3594 and 0.3533 and 0.3688
same,ODtreated/ODcontrol,"HeLa cells; Hela, group 4 (concentration), single experiments",0.6406 and 0.6467 and 0.6312
same,Inhibitory rate,"HeLa cells; Hela, group 8 (concentration), fraction, single experiments",0.7153 and 0.627 and 0.5661
same,ODtreated/ODcontrol,"HeLa cells; Hela, group 8 (concentration), single experiments",0.2847 and 0.373 and 0.4339
same,Inhibitory rate,"HeLa cells; Hela, group 16 (concentration), fraction, single experiments",0.7226 and 0.7292 and 0.7302
same,ODtreated/ODcontrol,"HeLa cells; Hela, group 16 (concentration), single experiments",0.2774 and 0.2708 and 0.2698
same,Inhibitory rate,"HeLa cells; Hela, group 32 (concentration), fraction, single experiments",0.7312 and 0.7755 and 0.8162
same,ODtreated/ODcontrol,"HeLa cells; Hela, group 32 (concentration), single experiments",0.2688 and 0.2245 and 0.1838
same,IC50,"HeLa cells; Hela, one of three experiments, unit inferred, read-out: IC50, single experiment, Hela",5.49 µM and 4.82 µM
same,Inhibitory rate,"HeLa cells; Hela, fraction, per experiment",0.7218 and 0.7353 and 0.6986
same,ODtreated/ODcontrol,"HeLa cells; Hela, fraction, per experiment",0.2782 and 0.2647 and 0.3014
same,IC50,"HeLa cells; Homo sapiens, HeLa, 48 h, HeLa, 48 h, MTT, read-out: IC50 HeLa",5.17 ± 0.34 µM
same,IC50,"HeLa cells; Homo sapiens, HeLa, one of three experiments, unit inferred, read-out: IC50, single experiment, Hela",5.19 µM
same,inhibition at 16 µM,"HeLa cells; Homo sapiens, preliminary screening, Hela, 16 μM, 48 h, mean±SD, unit inferred, read-out: Inhibition rate (16μM), 48 h, Hela",71.9 ± 1.86%
same,Expression of p-H2AX (DNA damage marker),p-H2AX in HepG2 cells,increased the expression of p-H2AX

# From article PMC10590056, “Design and synthesis of cabotegravir derivatives bearing 1,2,3-triazole and evaluation of anti-liver cancer activity” (Frontiers in Pharmacology, 2023)
